Laboratory results taken from paper PMC12646587, “Advanced cardiotoxicity profiling using field potential imaging with UHD-CMOS-MEA in human iPSC-derived cardiomyocytes” (Toxicological Sciences, 2025).
Like-named read-outs stand apart in the source and are kept apart here.

Experiments:
hiPSC-CMs = experiment: Conventional MEA recording (16-electrode Axion Maestro), acute exposure; assay type: cell-based, human
Protocol: To enable comparison with the UHD-CMOS-MEA recordings, conventional extracellular field potential recordings were performed using 16-electrode MEA plates on a commercially available MEA system (Axion Maestro, Axion Biosystems), in accordance with the general principles of the CiPA initiative. hiPSC-CMs were cultured and maintained on the MEA plates under spontaneous beating conditions at 37 °C. Recordings were conducted after 10 to 14 DIV, and data acquisition and beat detection were performed using the built-in algorithms of the AxIS software (Axion Biosystems), without the use of external pacing. […] Each compound was applied under acute exposure conditions, and field potential recordings were obtained for 30 min following drug administration.
To evaluate the measurement capabilities of a conventional MEA system, the same set of 7 compounds was tested using the 16-electrode Axion Maestro platform.

hERG = conditions: read-out: IC50 hERG; ref Clements et al. 2015; cited from earlier work
NaV = conditions: cited from earlier work
cardiomyocytes [1] = conditions: BR20 (20% reduction in beat rate), cited from earlier work
cardiomyocytes [2] = conditions: cited from earlier work
[3] = cited from earlier work
CaV = conditions: cited from earlier work
[4] = tested on: human iPSC-derived cardiomyocytes; experiment: Field potential imaging (FPI) with UHD-CMOS-MEA, acute drug treatment; assay type: cell-based; conditions: for BR (beat rate): arrows = direction, – = none; for FPI (concentration at which changes were detected): changed parameters in brackets in each cell; for significant changes in any of the measured parameters (17 beat parameters): 10, 100 μM
Protocol: Cryopreserved iCell Cardiomyocytes (FUJIFILM Cellular Dynamics, Inc.) were handled according to the supplier’s instructions. Cells were thawed in a 37 °C water bath for approximately 3 min and resuspended in iCell Thawing Medium to prepare a cell suspension at a final concentration of 1 × 10^7 cells/ml. A total of 10 µl of the cell suspension (100,000 cells per chip) was seeded directly onto the fibronectin-coated electrode area of each chip. Chips were incubated at 37 °C for 1 h to allow cell attachment, after which 1 ml of maintenance medium was gently added. […] Thereafter, medium exchanges were performed twice weekly by replacing half the medium volume.
Compounds were dissolved in culture medium containing 0.1% DMSO and administered cumulatively at increasing concentrations. Drug solutions were applied directly to the culture wells, and measurements were initiated 30 min after administration. […] All recordings were performed under spontaneous beating conditions, with no external pacing applied.
Recordings were performed at a sampling rate of 2 kHz, with a 2-min recording duration per condition. Data acquisition was controlled via proprietary software (Sony Semiconductor Solutions), and all raw signals were stored for offline analysis. All experiments were conducted in a humidified environment at 37 °C with 5% CO2, ensuring physiological conditions during both drug exposure and recording.
Spikes from hiPSC-derived cardiomyocytes were initially detected at each electrode using a voltage threshold of ±100 µV via BinViewer software (SCREEN Holdings Co., Ltd, Japan). The resulting spike data were then processed using a custom MATLAB (MathWorks, Natick, MA) script to perform beat detection. Firing count histograms were generated using a bin size of 0.5 ms, and peak detection within these histograms identified the timing and propagation duration of beats across the electrode array. For each electrode, the maximum spike amplitude and its corresponding peak timing were calculated to generate heat maps of field potential amplitude and activation timing. […]

[5] = tested on: human iPSC-derived cardiomyocytes; experiment: PCA of beat parameters: cardiotoxicity risk and mechanism classification; assay type: cell-based; conditions: for position in PCA space: across all tested concentrations
Protocol: Each parameter set was evaluated for its ability to separate cardiotoxic and non-cardiotoxic compounds while maintaining minimal variance among negative controls. […] To assess cardiotoxicity, PCA scores of test compounds were plotted in the PC space, and their positions were compared with the SD-defined zones of the negative control group. Risk levels were classified as follows: Low risk (within 1 SD), medium risk (between 1 and 2 SD), and high risk (beyond 2 SD). Dose-dependent cardiotoxicity potential was estimated based on displacement from the negative control cluster.
To establish a risk classification framework, the standard deviation (SD) range of negative control compounds in PCA space was used to define 3 zones: Within the SD range (low risk), between 1 and 2 SD (medium risk), and beyond 2 SD (high risk) (Fig. 6B). Risk levels derived from PCA distribution were compared with IC50 and Cmax values reported for each compound and associated ion channels (Table 5).

cardiomyocytes [6] = conditions: CTD90 ↑; ref Lu et al. 2019; cited from earlier work
[7] = acute, statistically significant change vs before

Compound: Cc1cccc(C)c1OCC(C)N (stereo not drawn) [Mexiletine]
- spontaneous beating (hiPSC-CMs; 10 μM): ceased entirely
- IBI (hiPSC-CMs; acute): reached statistical significance
- beat frequency (hiPSC-CMs; acute): reached statistical significance
- conduction velocity (hiPSC-CMs; acute): not captured
- field potential (spike) amplitude (hiPSC-CMs; acute): increase
- magnitude of change in beat frequency and IBI (hiPSC-CMs; acute): 2.2%
- propagation area (hiPSC-CMs; acute): not captured
- IC50 (hERG): 62.2 µM
- IC50 (NaV; ref Clements et al. 2015): 38 µM
- Impedance assay (cardiomyocytes [1]; ref Guo et al. 2013): 3.0 ([Guo et al. 2013]) (BR20) µM
- MEA assay (cardiomyocytes [2]; Spike amp., ref Clements and Thomas 2014): 3.0 ([Clements and Thomas 2014]) (Spike amp.) µM
- Cmax Free ([3]; ref Crumb et al. 2016): 2.5 ([Crumb et al. 2016]) μM
- IC50 (CaV; ref Clements et al. 2015): 125 µM
- beat-wise variability in conduction speed ([4]; 10 µM, post-treatment): increased variability
- average conduction velocity ([4]; 10 µM, before 0.147 ± 0.004, n = 6 wells): 0.109 ± 0.009 m/s
- proportion of the area with conduction velocity exceeding 0.3 m/s ([4]; 10 µM, before 4.9%): 0.6%
- beating frequency ([4]; 10 µM, before 64.5 bpm): 31.5 bpm
- number of active electrodes ([4]; 10 µM, before 115,437.9 ± 582.1): 93,595.6 ± 11,323.1
- Amp. (amplitude) [4, 7]: decreased and ↓
- Amp. CV [4, 7]: increased and ↑
- Area (propagation area) [4, 7]: decreased and ↓
- IBI (interbeat interval) [4, 7]: increase and ↑
- Veloc. (conduction velocity) [4, 7]: decreased and ↓
- BR (beat rate) [4, 7]: decreased and ↓
- FPI (concentration at which changes were detected) [4]: 10 (BR, IBI, Ampl. Area, Veloc.) μM
- FPI PCA (concentration at which changes were detected) [5]: 1 µM

Compound: COc1ccc(CCN(C)CCCC(C#N)(c2ccc(OC)c(OC)c2)C(C)C)cc1OC (stereo not drawn) [Verapamil]
- IBI (hiPSC-CMs; acute): shortened
- beat frequency (hiPSC-CMs; acute): increased
- field potential (spike) amplitude (hiPSC-CMs; acute): decreasing trend
- Amp. CV [4, 7]: ↓
- Amp. STV [4, 7]: ↓
- Dist Origin [4, 7]: reduced and ↓
- Dist Origin STV [4, 7]: ↓
- IBI (interbeat interval) [4, 7]: reduced and ↓
- No. of Origin [4, 7]: ↓
- BR (beat rate) [4, 7]: increased and ↑
- FPI (concentration at which changes were detected) [4]: 0.003 (IBI, Amp. STV, Dist Origins, Dist Origins STV) μM

Compound: CC(C)NCC(O)c1ccc(O)c(O)c1 (stereo not drawn) [Isoproterenol]
- Impedance assay (cardiomyocytes [1]; ref Doherty et al. 2015): 0.01 ([Doherty et al. 2015]) (BR20) µM
- average number of excitation origins per beat ([4]; 10 nM, n = 6 wells): 1.51 ± 0.02
- total number of active electrodes ([4]; 30 nM, Before: 149,149.4 ± 3,090.5): 149,185.2 ± 2,882.6
- beating frequency ([4]; 30 nM, before 35.5 bpm): 57.0 bpm
- average number of excitation origins per beat ([4]; 30 nM, n = 6 wells): 1.61 ± 0.02
- Area STV [4, 7]: decreased and ↓
- IBI (interbeat interval) [4, 7]: ↓
- BR (beat rate) [4, 7]: increased and ↑
- FPI (concentration at which changes were detected) [4]: 0.01 (BR, IBI) μM
- FPI PCA (concentration at which changes were detected) [5]: 0.01 µM

Compound: CC(C)COCC(CN(Cc1ccccc1)c1ccccc1)N1CCCC1 (stereo not drawn) [Bepridil]
- IBI (hiPSC-CMs; acute): statistically significant changes
- IBI variability, amplitude variability, conduction velocity variability and STV of conduction (hiPSC-CMs; acute): not detected
- magnitude of change in beat frequency and IBI (hiPSC-CMs; acute): less than 5%
- IC50 (NaV; ref Clements et al. 2015): 2.3 µM
- Impedance assay (cardiomyocytes [1]; ref Guo et al. 2013): 0.03 ([Guo et al. 2013]) (BR20) µM
- MEA assay (cardiomyocytes [2]; FPD, ref Kaneko et al. 2014): 10 ([Kaneko et al. 2014]) (FPD) µM
- HCA assay (cardiomyocytes [6]): 1.0 ([Lu et al. 2019]) (CTD90 ↑) µM
- Cmax Free ([3]; ref Crumb et al. 2016): 0.032 ([Crumb et al. 2016]) μM
- IC50 (CaV; ref Clements et al. 2015): 1 µM
- Amp. CV [4, 7]: decreased and ↓
- IBI (interbeat interval) [4, 7]: ↓
- IBI CV [4, 7]: decreased and ↓
- Veloc. CV [4, 7]: decreased and ↓
- Veloc. STV [4, 7]: ↓

Compound: COc1ccc([C@@H]2Sc3ccccc3N(CCN(C)C)C(=O)[C@@H]2OC(C)=O)cc1 [Diltiazem]
- IBI (hiPSC-CMs; acute): shortened
- beat frequency (hiPSC-CMs; acute): increased
- field potential (spike) amplitude (hiPSC-CMs; acute): significant reduction
- IBI (interbeat interval) [4, 7]: reduced and ↓
- BR (beat rate) [4, 7]: increased and ↑

Compound: CC(=O)Oc1ccccc1C(=O)O [Aspirin]
- significant changes in any of the measured parameters (17 beat parameters) ([4]; acute): did not induce significant changes
- position in PCA space [5]: remained near the origin

Compound: CC1(C)S[C@@H]2[C@H](NC(=O)[C@H](N)c3ccc(O)cc3)C(=O)N2[C@H]1C(=O)O [Amoxicillin]
- significant changes in any of the measured parameters (17 beat parameters) ([4]; acute): did not induce significant changes
- position in PCA space [5]: remained near the origin

Compound: CC(C)N(CCC(C(N)=O)(c1ccccc1)c1ccccn1)C(C)C (stereo not drawn) [Disopyramide]
- IC50 (NaV; ref Kramer et al. 2013): 168 µM
- MEA assay (cardiomyocytes [2]; FPDc10 (10% prolongation of FPDc), ref Ando et al. 2017): 0.74 ([Ando et al. 2017]) (FPDc10) µM
- HCA assay (cardiomyocytes [6]): 10 ([Lu et al. 2019]) (CTD90 ↑) µM
- Cmax Free ([3]; ref Liu et al. 2021): 0.7 ([Liu et al. 2021]) μM
- IC50 (CaV; ref Kramer et al. 2013): 1040 µM
- Amp. (amplitude) [4, 7]: ↓
- Area (propagation area) [4, 7]: ↓
- IBI (interbeat interval) [4, 7]: prolonged and ↑
- Veloc. (conduction velocity) [4, 7]: ↓
- BR (beat rate) [4, 7]: ↓
- FPI (concentration at which changes were detected) [4]: 1 (BR) μM
- FPI PCA (concentration at which changes were detected) [5]: 1 µM

Compound: C=C[C@H]1C[N@@]2CC[C@H]1C[C@@H]2[C@@H](O)c1ccnc2ccc(OC)cc12 [Quinidine]
- IBI (hiPSC-CMs; acute): prolonged
- beat frequency (hiPSC-CMs; acute): reduced
- conduction velocity (hiPSC-CMs; acute): decreased
- field potential (spike) amplitude (hiPSC-CMs; acute): decreased
- propagation area (hiPSC-CMs; acute): decreased
- Impedance assay (cardiomyocytes [1]; ref Guo et al. 2013): 10 ([Guo et al. 2013]) (BR20) µM
- MEA assay (cardiomyocytes [2]; FPD, ref Harris et al. 2013): 0.3 ([Harris et al. 2013]) (FPD) µM
- Cmax Free ([3]; ref Blinova et al. 2018): 3 ([Blinova et al. 2018]) μM
- Amp. (amplitude) [4, 7]: decreased and ↓
- Area (propagation area) [4, 7]: decreased and ↓
- Area CV [4, 7]: increasing and ↑
- IBI (interbeat interval) [4, 7]: increasing and ↑
- BR (beat rate) [4, 7]: decreased and ↓
- position on the PCA plot relative to mechanism-of-action groups ([5]; 10 μM): plotted near compounds acting on hERG channels
